Data on six substances can be found in US7198782B2, “Method for the treatment of diabetes” (priority 1998, dated 2007).

Assay [1] concerns secretion of gastric acid. Nature of the assay: Inhibitory effect on the secretion of gastric acid in rats (Example 7). The format is in vivo, rats (Wister line). To be noted: peptide 10 μg/kg with gastrin 4 μg/kg, hypodermic injection, gastric juice pH 10 minutes later, control pH 3.2 / 3.1. Here is the method: The inhibitory effect on the secretion of gastric acid was evaluated using rats (Wister line), by dissolving in physiological saline, the peptides synthesized in Example 6 and gastrin, a stimulator of gastric acid secretion, hypodermically injecting the previous solution, and measuring the secretion of gastric acid 10 minutes later. Gastrin was administered to obtain a dose of 4 μg/kg and the peptides of the invention were administered to obtain a dose of 10 μg/kg. The rats were immobilized on a fixator, their gastric juice was sampled by inserting a probe through the mouth into the stomach, and the pH was measured to evaluate the secretion of gastric acid. When the secretion of gastric acid was compared between the reference group with no substance administered and the administered group, the following was obtained for the inhibition on the secretion of gastric acid.

The subject of assay [2] is BxPC-3 cells. Nature of the assay: Stimulating effect on insulin secretion, BxPC-3 cells (Example 3). Format: cell-based, human. To be noted: supernatant of BxPC-3 cells, 0.01 mg/well, 24 hours; control 37.6. How it is done:
BxPC-3 cells which are insulin producing cells derived from a human pancreas (source: Dainippon Pharmaceutical Co.,Ltd. ), were cultured in RPMI 1640 media containing 10% calf fetal serum, and grown with 5% carbon dioxide gas in a humidified incubator at 37° C. The cells were treated with trypsin prior to seeding with a density of 1×10^5/well; when they reached confluency, the peptide of the invention synthesized in Example 2, the peptides A and B, which are unrelated to the invention and whose activities are unknown, as well as a control (physiological saline) were added at 0.01 mg/well, and the cells were cultured for 24 hours. Then, the concentrations of insulin present in the supernatents were measured by colorimetry with an insulin assaying kit (source: Shibayagi Co.,Ltd.).

For a further assay, the system named is HIT cells. Nature of the assay: Stimulation of insulin production by insulin producing cells, HIT cells (Example 5). Format: cell-based, hamster. To be noted: for rate of stimulation for the production of insulin (%): HIT cells, 12 hours, no substance added = 100%. How it is done:
(§1) HIT cells, which are insulin producing hamster pancreatic cells, and BxPC-3 cells, which are human pancreatic cells (source: Dai Nippon Seiyaku), were cultured in RPMI 1640 media (source: Dai Nippon Seiyaku) containing 10% calf fetal serum, and grown with 5% carbon dioxide gas in a humidified incubator at 37° C. The cells were treated with trypsin for seeding 96-well culture plates with a density of 1×10^4/well; when the cells reached confluency, the media was exchanged to a F12 serum-free media and the cells were cultured for 8 hours. Then, the peptides of the invention produced in Example 4 were dissolved in serum-free RPMI 1640 media; various doses of the peptides indicated by the sequence number 1 for the HIT cells, and various doses of the peptides indicated by the sequence number 5 for the BxPC-3 cells, were added to the wells and the cultures were further maintained for 12 hours. After the cultures have been performed, the stimulatory effects of the peptides of the invention on the production of insulin by the cells were measured by the insulin immunoassay, to seek stimulatory effects on production in comparison to the non-treated groups. Also, the insulin immunoassay, and the calculations for the rates of stimulation for the production of insulin were actually performed as follows. Various dilutions of the supernatents from the cell culture media were added to the wells coated with immobilized anti-insulin antibodies, and reacted with anti-insulin antibody solutions, according to the protocol of the insulin assay kit commercialized by Shibayagi (Ltd.). The detection was by reacting the biotin labeling the antibodies with the steptavidin-conjugated peroxydase and measuring the coloration catalyzed by the peroxydase. The concentration of insulin was calculated from a standard curve for insulin. When examining the rates of stimulation for the production of insulin in the groups with various doses added, by taking the rate of stimulation for the production of insulin in the reference group with no substance added as 100%, the following was obtained.

The test system of assay [3] is BxPC-3 cells. Nature of the assay: Stimulation of insulin production by insulin producing cells, BxPC-3 cells (Example 5). Format: cell-based, human. To be noted: 12 hours, no substance added = 100%. Here is the method:
as §1

For another assay, the system named is GH3 cells. Nature of the assay: Stimulation of growth hormone production by growth hormone producing cells (Example 9). To be noted: 3 days, no peptides added = 100%. Format: cell-based, Hamster. Here is the method: Hamster-derived GH3 cells (source: IFO, deposition No. 50105), which are growth hormone-producing hypophyseal cells, were grown in an F12 media (source: Dai Nippon Seiyaku) containing 15% calf fetal serum, and grown with 5% carbon dioxide gas in a humidified incubator at 37° C. The cells were treated with trypsin for seeding 96-well culture plates with a density of 1×10^4/well; when the cells reached confluency, the media was exchanged to a 15% serum F12 media and the cells were cultured for 12 hours. Then, the peptides of the invention produced in Example 7 were dissolved in 15% serum F12 media to add various doses of the peptides to the wells, and the cultures were further maintained for 3 days. After the cultures have been performed, the stimulatory effects of the peptides on the production of growth hormones by the cells were measured by the growth hormone immunoassay, to examine stimulatory the effects on the production, in comparison with the non-treated groups. Also, the growth hormone immunoassay was performed with a method of the art, the sandwich ELISA, i.e., various dilutions of the supernatents from the cell culture media were added to wells coated with immobilized anti-growth hormone antibodies, and reacted for 180 minutes at room temperature, washed before further addition of anti-growth hormone antibodies labeled with peroxydase, and reacted for 60 minutes at room temperature. After washing, the coloring reaction catalyzed by the peroxydase was measured by measuring the absorbance. The concentration of growth hormone was examined based on standard curves obtained by performing the same sandwich ELISA using already known concentrations of growth hormone. When examining the rates of stimulation for the production of growth hormones in the groups with various doses added, by taking the rate of stimulation for the production of growth hormone for the reference group with no peptides added as 100%, the following was obtained.

For the substance “Sequence No. 3: peptide predicted by comparing the cDNA sequences of the gastrin receptor; gastric acid secretion regulator (GGAGP; Artificial polypeptide which regulates insulin production.)”, in assay [1], the “Gastric juice pH” value worked out at 5.3 pH.
Same read-out and setting: the result for “Sequence No. 4: peptide predicted by comparing the cDNA sequences of the gastrin receptor; gastric acid secretion regulator (MSVGGNMLIIV; Artificial polypeptide having inhibitory effect on gastric acid secretion)” reads 4.8 pH.
“peptide of the invention: peptide synthesized in Example 2, printed as having the amino acid sequence of sequence number 2 (GIP receptor derived insulin production regulator) (VGRDPAAAPALWRRRGTAPPLSAIVSQV; Artificial peptide which regulates insulin production)”: the insulin concentration with BxPC-3 cells [2] was found to be 148 µg/mL.
As for “sequence number 1: peptide of the missing (spliced) region predicted from glucagon receptor cDNAs; increases insulin production (PKAPSAQ; Artificial polypeptide which inhibits insulin production.)”, the “rate of stimulation for the production of insulin (%)” value with HIT cells (0.01 μg/well) amounted to 102.8%; with HIT cells (0.1 μg/well), 131.6%; in the assay with HIT cells (1 μg/well), 184.9%; in the assay with HIT cells (10 μg/well), 203.1%. In the assay with HIT cells (summary in the description, cells and dose not named), the “production of insulin by insulin producing cells” value was “increased significantly”.
Regarding “sequence number 5: peptide predicted from glucagon receptor cDNAs, variant of sequence number 1; increases insulin production (PQVPSAQ; Artificial polypeptide having inhibitory effects on insulin secretion)”, the “rate of stimulation for the production of insulin (%)” value in the assay with BxPC-3 cells [3] (0.01 μg/well) is listed as 110.9%; with BxPC-3 cells [3] (0.1 μg/well) it was 123.3%; in the assay with BxPC-3 cells [3] (1 μg/well), 198.2%; in the assay on BxPC-3 cells [3] (10 μg/well) it was 181.1%.
In the case of “sequence number 6: peptide predicted by comparing the amino acid sequences of somatostatin receptor; growth hormone production regulator (PSCQWVQAPACQ; Artificial polypeptide which promotes growth hormone secretion.)”, the “stimulation rate of growth hormone production (%)” value came out at 101.2% in the assay with GH3 cells (0.01 μg/well), 124.1% with GH3 cells (0.1 μg/well), 175.6% with GH3 cells (1 μg/well) and 190.4% with GH3 cells (10 μg/well).
